Key:
Excretion study in rats = type: in vivo, SD rats; conditions: 20 mg/kg oral; for Bile Cumulative excretion rate / Bile Excretion rate: bile duct cannulated rats; for Feces Cumulative excretion rate / Feces Excretion rate / Urine Cumulative excretion rate / Urine Excretion rate: rats
Experimental: Five SD rats were pre-adapted in separate metabolic cages with access to water and a solid diet. They were then administered a single oral dose of 20 mg/kg of ammoxetine after a 12-h fasting period and free access to water. Feces and urine samples were collected at specific time intervals: 0–5 h, 5–12 h, 12–24 h, 24–48 h, and 48–72 h post-administration. The dried fecal weights and urine volumes were measured and recorded at each sampling period. The collected feces were ground, thoroughly mixed, and then homogenized in distilled water to create a 10% homogenate, which was used as the fecal sample. In parallel, after a 12-h fasting period with free access to water, five SD rats were anesthetized, and bile duct cannulation was performed to collect bile samples. Once recovered from anesthesia, these rats received a single oral dose of 20 mg/kg of ammoxetine via oral gavage. Bile was collected at the following time points: 0–5 h, 5–12 h, 12–24 h, 24–48 h, and 48–72 h post-dosing, and its volume was measured. All collected samples were stored at −30°C until further processing. For sample processing, 100 μL of feces homogenates, urine, or bile samples were taken and mixed with 100 μL of L-phencynonate (IS, 50 ng/mL) and 300 μL of methanol. After vortexing, the mixture was centrifuged at 13,800×g for 10 min. The resulting supernatants were analyzed using an LC-MS-MS method.

RLM = experiment: Hepatic microsome stability assay, RLM; type: in vitro ADME, rat; conditions: predicted hepatic clearance
Experimental: (§1) A hepatic microsome stability assay was conducted to investigate the metabolic disposition of ammoxetine. In this assay, 100 μL of ammoxetine (2.5 μmol/L) was incubated at 37°C with 100 μL of liver microsomes (RLM, DLM, MLM, or HLM) formulated in a 5 mmol/L dipotassium hydrogen phosphate (K2HPO4) buffer at pH 7.4. The concentration of microsomes was 0.5 g/L. To initiate the incubations, 50 μL of NADPH solution preincubated at 37°C was added. […] Parallel triplicate samples were prepared for each time point, including 0, 2, 5, 10, 15, 30, 60, 90, and 120 min. To stop the reactions at each time point, 250 μL of ice-cold precipitating agent (acetonitrile/methanol, 1:1, v/v) containing 500 ng/mL of L-phencynonate (IS) was added to the incubation mixture. The samples were vortexed for 2 min at 4°C and then centrifuged at 13,800×g for 10 min. The supernatants were analyzed using an LC-MS-MS approach. […]
(§2) In Formula 3, t1/2 (min) represents the half-life of ammoxetine in liver microsomes. It is calculated by dividing −0.693 by the resulting slope (k e) obtained from a natural logarithm plot of the remaining concentration of ammoxetine against incubation time. […]

[1] = Hepatic microsome stability assay, RLM; type: in vitro ADME, rat; conditions: rat, liver microsomes, pH 7.4; 1 μmol/L, 0.2 g/L microsomes, NADPH
Experimental: as §1, §2

CYP 2D6 = CYP 2D6 (Homo sapiens, UniProt P10635); experiment: Phenotyping with recombinant human CYP 2D6; type: in vitro ADME; design: purchased BD (Woburn, USA); conditions: 5 μmol/L, 25 pmol/mL CYP, 1 h
Sequence of CYP 2D6 (P10635 whole entry): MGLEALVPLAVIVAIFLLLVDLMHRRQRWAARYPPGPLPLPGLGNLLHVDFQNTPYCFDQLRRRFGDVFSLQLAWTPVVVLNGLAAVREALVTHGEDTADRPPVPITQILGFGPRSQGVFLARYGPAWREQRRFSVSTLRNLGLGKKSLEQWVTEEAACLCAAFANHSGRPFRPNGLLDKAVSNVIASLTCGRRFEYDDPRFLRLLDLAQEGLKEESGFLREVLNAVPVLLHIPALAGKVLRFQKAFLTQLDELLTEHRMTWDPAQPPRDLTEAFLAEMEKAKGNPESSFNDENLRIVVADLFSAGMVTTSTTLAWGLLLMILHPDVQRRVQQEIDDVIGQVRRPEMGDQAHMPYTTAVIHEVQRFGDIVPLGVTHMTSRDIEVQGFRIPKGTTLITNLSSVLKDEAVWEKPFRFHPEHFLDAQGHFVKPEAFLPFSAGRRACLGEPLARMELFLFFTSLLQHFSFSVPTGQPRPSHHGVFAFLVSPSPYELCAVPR
Experimental: Ammoxetine (final concentration 5 μmol/L) was incubated with recombinant human CYP 3A4, CYP 1A2, CYP 2C9, CYP 2C19, and CYP 2D6 (final concentration 25 pmol/mL) in a 5 mmol/L K2HPO4 buffer at pH 7.4. The incubations were performed in quintuplicate. NADPH (final concentration 1 mmol/L) was added to initiate the incubation process. The mixture was then incubated at 37°C for 1 h. To stop the reaction, 200 μL of ice-cold acetonitrile/methanol (1:1, v/v) containing 500 ng/mL of L-phencynonate (IS) was added. The samples were vortexed for 2 min and centrifuged at 13,800×g and 4°C for 10 min. The supernatants obtained were analyzed using an LC-MS-MS method. To establish appropriate controls, zero-time controls and blank controls in the absence of NADPH were set up in parallel.

Bile Cumulative excretion rate (Excretion study in rats; 0–5 h): 0.089 ± 0.058%
Bile Excretion rate (Excretion study in rats; 0–5 h): 0.089 ± 0.058%
Bile Cumulative excretion rate (Excretion study in rats; 5–12 h): 0.271 ± 0.257%
Bile Excretion rate (Excretion study in rats; 5–12 h): 0.182 ± 0.212%
Bile Cumulative excretion rate (Excretion study in rats; 12–24 h): 0.420 ± 0.384%
Bile Excretion rate (Excretion study in rats; 12–24 h): 0.149 ± 0.146%
Bile Cumulative excretion rate (Excretion study in rats; 24–48 h): 0.420 ± 0.384%
Bile Excretion rate (Excretion study in rats; 48–72 h): 0.016 ± 0.016%
Bile Cumulative excretion rate (Excretion study in rats; 48–72 h (at 72 h)): 0.436 ± 0.400%
Feces Cumulative excretion rate (Excretion study in rats; 0–5 h): 0.010 ± 0.008%
Feces Excretion rate (Excretion study in rats; 0–5 h): 0.010 ± 0.008%
Urine Cumulative excretion rate (Excretion study in rats; 0–5 h): 0.116 ± 0.034%
Urine Excretion rate (Excretion study in rats; 0–5 h): 0.116 ± 0.034%
Feces Cumulative excretion rate (Excretion study in rats; 5–12 h): 0.216 ± 0.060%
Feces Excretion rate (Excretion study in rats; 5–12 h): 0.206 ± 0.056%
Urine Cumulative excretion rate (Excretion study in rats; 5–12 h): 0.223 ± 0.069%
Urine Excretion rate (Excretion study in rats; 5–12 h): 0.107 ± 0.048%
Feces Cumulative excretion rate (Excretion study in rats; 12–24 h): 0.361 ± 0.168%
Feces Excretion rate (Excretion study in rats; 12–24 h): 0.145 ± 0.126%
Urine Cumulative excretion rate (Excretion study in rats; 12–24 h): 0.273 ± 0.124%
Urine Excretion rate (Excretion study in rats; 12–24 h): 0.050 ± 0.057%
Feces Cumulative excretion rate (Excretion study in rats; 24–48 h): 0.380 ± 0.180%
Feces Excretion rate (Excretion study in rats; 24–48 h): 0.019 ± 0.016%
Urine Cumulative excretion rate (Excretion study in rats; 24–48 h): 0.287 ± 0.134%
Urine Excretion rate (Excretion study in rats; 24–48 h): 0.014 ± 0.010%
Feces Excretion rate (Excretion study in rats; 48–72 h): 0.002 ± 0.003%
Urine Excretion rate (Excretion study in rats; 48–72 h): 0.005 ± 0.003%
Feces Cumulative excretion rate (Excretion study in rats; 48–72 h (at 72 h)): 0.382 ± 0.180%
Urine Cumulative excretion rate (Excretion study in rats; 48–72 h (at 72 h)): 0.292 ± 0.137%
CL h (RLM): 49.58 ± 0.39 mL/min/kg
half-life at 1 μmol/L [1]: 12.8 ± 0.99 min
Transformation ratio% (CYP 2D6): 14.09±1.89%
residuary concentration of ammoxetine, Mean±SD (CYP 2D6): 5.89±0.13
Compound: CNCC[C@H](Oc1cccc2c1OCO2)c1cccs1 [ammoxetine]

— article PMC11579541, “In vitro, in vivo, and in silico approaches for evaluating the preclinical DMPK profiles of ammoxetine, a novel chiral serotonin and norepinephrine reuptake inhibitor” (Frontiers in Pharmacology, 2024)
